Laboratory results from PubChem BioAssay AID2060892 (Molecular Pharmacology Branch, DTP, NCI, 2025).

Tested on: HOP-62 complex spheroids with HUVEC/MSC, viability
Assay: Anticancer human tumor HOP-62 cell line growth inhibition [RAS];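 further: spheroids exposed to agents for seven days before readout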;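 on viability, T/C: 100% = DMSO vehicle control viability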
Conditions: for IC50: curve of first compound; for viability, T/C: stronger effect = lower value
Outline: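 Tumour cells grown as complex spheroids with HUVEC endothelial cells and mesenchymal stem cells, treated with RAS pathway inhibitor combinations. Each agent spans half-log steps from near clinical Cmax, or 10 microM where Cmax is unknown.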

[1] = second compound 0.000949 µM, first compound 0.0316 µM
[2] = second compound 0.000949 µM, first compound 0.1 µM
[3] = second compound 0.000949 µM, first compound 0.316 µM
[4] = second compound 0.000949 µM, first compound 1 µM
[5] = second compound 0.003 µM, first compound 0.0316 µM
[6] = second compound 0.003 µM, first compound 0.1 µM
[7] = second compound 0.003 µM, first compound 0.316 µM
[8] = second compound 0.003 µM, first compound 1 µM
[9] = second compound 0.00949 µM, first compound 0.0316 µM
[10] = second compound 0.00949 µM, first compound 0.1 µM
[11] = second compound 0.00949 µM, first compound 0.316 µM
[12] = second compound 0.00949 µM, first compound 1 µM
[13] = second compound 0.03 µM, first compound 0.0316 µM
[14] = second compound 0.03 µM, first compound 0.1 µM
[15] = second compound 0.03 µM, first compound 0.316 µM
[16] = second compound 0.03 µM, first compound 1 µM
[17] = second compound 0.0949 µM, first compound 0.0316 µM
[18] = second compound 0.0949 µM, first compound 0.1 µM
[19] = second compound 0.0949 µM, first compound 0.316 µM
[20] = second compound 0.0949 µM, first compound 1 µM
[21] = second compound 0.3 µM, first compound 0.0316 µM
[22] = second compound 0.3 µM, first compound 0.1 µM
[23] = second compound 0.3 µM, first compound 0.316 µM
[24] = second compound 0.3 µM, first compound 1 µM
[25] = second compound 0.000949 µM, first compound 3.16 µM
[26] = second compound 0.000949 µM, first compound 10 µM
[27] = second compound 0.003 µM, first compound 3.16 µM
[28] = second compound 0.003 µM, first compound 10 µM
[29] = second compound 0.00949 µM, first compound 3.16 µM
[30] = second compound 0.00949 µM, first compound 10 µM
[31] = second compound 0.03 µM, first compound 3.16 µM
[32] = second compound 0.03 µM, first compound 10 µM
[33] = second compound 0.0949 µM, first compound 3.16 µM
[34] = second compound 0.0949 µM, first compound 10 µM
[35] = second compound 0.3 µM, first compound 3.16 µM
[36] = second compound 0.3 µM, first compound 10 µM

CCN1CCN(Cc2ccc(Nc3ncc(F)c(-c4cc(F)c5nc(C)n(C(C)C)c5c4)n3)nc2)CC1 + CCn1c(-c2cc(N3CCN(C)CC3)cnc2C(C)OC)c2c3cc(ccc31)-c1csc(n1)CC(NC(=O)C1CC1C)C(=O)N1CCCC(N1)C(=O)OCC(C)(C)C2
IC50 (second compound 0.000949 µM): > 1000 nM | IC50 (second compound 0.003 µM): > 1000 nM | IC50 (second compound 0.00949 µM): > 1000 nM | IC50 (second compound 0.03 µM): 70.4 nM | IC50 (second compound 0.0949 µM): < 3.16 nM | IC50 (second compound 0.3 µM): < 3.16 nM | viability, T/C (second compound 0.000949 µM, first compound 0.00316 µM): 121% | viability, T/C (second compound 0.000949 µM, first compound 0.01 µM): 117% | viability, T/C [1]: 85.5% | viability, T/C [2]: 109% | viability, T/C [3]: 114% | viability, T/C [4]: 87.8% | viability, T/C (second compound 0.003 µM, first compound 0.00316 µM): 97.9% | viability, T/C (second compound 0.003 µM, first compound 0.01 µM): 81.7% | viability, T/C [5]: 78.2% | viability, T/C [6]: 90.4% | viability, T/C [7]: 104% | viability, T/C [8]: 62.6% | viability, T/C (second compound 0.00949 µM, first compound 0.00316 µM): 70.7% | viability, T/C (second compound 0.00949 µM, first compound 0.01 µM): 57.9% | viability, T/C [9]: 68.2% | viability, T/C [10]: 74.3% | viability, T/C [11]: 57.3% | viability, T/C [12]: 50.8% | viability, T/C (second compound 0.03 µM, first compound 0.00316 µM): 52.8% | viability, T/C (second compound 0.03 µM, first compound 0.01 µM): 52.4% | viability, T/C [13]: 51.9% | viability, T/C [14]: 49% | viability, T/C [15]: 32.6% | viability, T/C [16]: 50.4% | viability, T/C (second compound 0.0949 µM, first compound 0.00316 µM): 38.4% | viability, T/C (second compound 0.0949 µM, first compound 0.01 µM): 42.8% | viability, T/C [17]: 39.2% | viability, T/C [18]: 32.4% | viability, T/C [19]: 32.6% | viability, T/C [20]: 47% | viability, T/C (second compound 0.3 µM, first compound 0.00316 µM): 36.6% | viability, T/C (second compound 0.3 µM, first compound 0.01 µM): 37.1% | viability, T/C [21]: 35.2% | viability, T/C [22]: 33.4% | viability, T/C [23]: 40.7% | viability, T/C [24]: 45.3%

Cc1nc(N2CCC3(CC2)COC(C)C3N)c(CO)nc1Sc1ccnc(N)c1Cl (stereo unspecified) + CCn1c(-c2cc(N3CCN(C)CC3)cnc2C(C)OC)c2c3cc(ccc31)-c1csc(n1)CC(NC(=O)C1CC1C)C(=O)N1CCCC(N1)C(=O)OCC(C)(C)C2
IC50 (second compound 0.000949 µM): 1880 nM | IC50 (second compound 0.003 µM): 439 nM | IC50 (second compound 0.00949 µM): 124 nM | IC50 (second compound 0.03 µM): < 31.6 nM | IC50 (second compound 0.0949 µM): < 31.6 nM | IC50 (second compound 0.3 µM): < 31.6 nM | viability, T/C [1]: 110% | viability, T/C [2]: 98.2% | viability, T/C [3]: 50.6% | viability, T/C [4]: 63.7% | viability, T/C [25]: 56.7% | viability, T/C [26]: 21.8% | viability, T/C [5]: 83.8% | viability, T/C [6]: 66.5% | viability, T/C [7]: 47.2% | viability, T/C [8]: 45.6% | viability, T/C [27]: 33.1% | viability, T/C [28]: 18.4% | viability, T/C [9]: 71.4% | viability, T/C [10]: 49.3% | viability, T/C [11]: 40.6% | viability, T/C [12]: 31.8% | viability, T/C [29]: 24% | viability, T/C [30]: 19% | viability, T/C [13]: 46.5% | viability, T/C [14]: 40.6% | viability, T/C [15]: 36.9% | viability, T/C [16]: 24.6% | viability, T/C [31]: 16.8% | viability, T/C [32]: 20.9% | viability, T/C [17]: 37.9% | viability, T/C [18]: 32.6% | viability, T/C [19]: 27.4% | viability, T/C [20]: 20.6% | viability, T/C [33]: 13.9% | viability, T/C [34]: 17.9% | viability, T/C [21]: 37.1% | viability, T/C [22]: 29.9% | viability, T/C [23]: 28.8% | viability, T/C [24]: 19.9% | viability, T/C [35]: 18.4% | viability, T/C [36]: 16%

NC1c2ccccc2OC12CCN(c1cnc3c(N4CCCc5ncccc54)n[nH]c3n1)CC2 (stereo unspecified) + CCn1c(-c2cc(N3CCN(C)CC3)cnc2C(C)OC)c2c3cc(ccc31)-c1csc(n1)CC(NC(=O)C1CC1C)C(=O)N1CCCC(N1)C(=O)OCC(C)(C)C2
IC50 (second compound 0.000949 µM): 180 nM | IC50 (second compound 0.003 µM): 72 nM | IC50 (second compound 0.00949 µM): < 31.6 nM | IC50 (second compound 0.03 µM): < 31.6 nM | IC50 (second compound 0.0949 µM): < 31.6 nM | IC50 (second compound 0.3 µM): < 31.6 nM | viability, T/C [1]: 87.9% | viability, T/C [2]: 65.9% | viability, T/C [3]: 33.9% | viability, T/C [4]: 28.5% | viability, T/C [25]: 28.1% | viability, T/C [26]: 17.6% | viability, T/C [5]: 72.5% | viability, T/C [6]: 40.5% | viability, T/C [7]: 25.3% | viability, T/C [8]: 25% | viability, T/C [27]: 17.7% | viability, T/C [28]: 14% | viability, T/C [9]: 47.4% | viability, T/C [10]: 29.3% | viability, T/C [11]: 25% | viability, T/C [12]: 17.9% | viability, T/C [29]: 16.5% | viability, T/C [30]: 13.3% | viability, T/C [13]: 42.9% | viability, T/C [14]: 28.7% | viability, T/C [15]: 22.4% | viability, T/C [16]: 16.7% | viability, T/C [31]: 11.3% | viability, T/C [32]: 13.6% | viability, T/C [17]: 30.5% | viability, T/C [18]: 24.8% | viability, T/C [19]: 18.6% | viability, T/C [20]: 17.5% | viability, T/C [33]: 11.2% | viability, T/C [34]: 12.8% | viability, T/C [21]: 31.9% | viability, T/C [22]: 23.6% | viability, T/C [23]: 18.4% | viability, T/C [24]: 15.6% | viability, T/C [35]: 12.5% | viability, T/C [36]: 14.3%
